Measurements taken from publication PMC6940896, “Development of a Highly Efficient Hybrid Peptide That Increases Immunomodulatory Activity Via the TLR4-Mediated Nuclear Factor-κB Signaling Pathway” (International Journal of Molecular Sciences, 2019).
No end group written: not given here.

Tests used:
[1] = test system: CTX-immunosuppressed Balb/c mice; test: Serum cytokine and immunoglobulin ELISA in CTX-immunosuppressed mice; type: in vivo, mouse; conditions: peptide 10 mg/kg ip days 4-10, ELISA, n = 12
Protocol: (§1) Sigma-Aldrich, St. Louis, MO, USA) group, a LL-37 group, a Tα1 group, and a LTAa group. For the first 3 days, CTX (80 mg/kg mouse weight) was administered intraperitoneally once daily to establish the immunosuppressed animal model. From days 4 to 10 (7 days), peptides (10 mg/kg mouse weight) were administered intraperitoneally each day. The CTX group was only treated with CTX, and the control group was given sterile saline. The dose volume was 200 μL. Twenty-four hours after the last dose, the mice were killed and their tissues and blood collected for analysis. The body weight index was calculated in the following way:(2) Index (%)=final body weight-[…] body weight/initial body weight ×100% Serum was obtained from blood by centrifugation at 1000 × g for 20 min. Levels of TNF-α, IL-6, IL-1β, IgG, IgA, and IgM in the serum were detected by ELISA.

[2] = test system: splenocyte T lymphocytes; test: T lymphocyte subsets in splenocytes by flow cytometry; type: in vivo, mouse; conditions: versus group treated with CTX alone, peptide 10 mg/kg ip days 4-10, n = 12
Protocol: The spleen was collected, ground, and passed through 40-μm-mesh cell strainers filled with PBS to harvest the cell suspension. The cells were stained with CD3- PerCP, CD4-APC, and CD8-FITC for 30 min at 4 °C for T lymphocyte measurements. The results were analyzed using a Guava® easyCyte^TM 6-21 system and Guavasoft 3.1.1 software (Millipore, Burlington, MA, USA).

[3] = target: T1, recombinant TLR4/MD2 (Homo sapiens, UniProt O00206+Q9Y6Y9); test: Surface plasmon resonance binding to immobilized TLR4/MD2; conditions: SPR, ProteOn XPR36, GLH chip, 25 °C, PBS 0.1% Tween 20 with 2% DMSO, 1:1 model, 0-10 μM peptide
T1 construct: purchased R&D Systems
Protocol: Surface plasmon resonance (SPR) experiments were performed using a ProteOn^TM XPR36 instrument (Bio-Rad, Hercules, CA, USA) with a ProteOn^TM GLH sensor chip (Bio-Rad) at 25 °C. PBS supplemented with 0.1% Tween 20 (containing 2% dimethyl sulfoxide) was used as a running buffer and was continuously passed into the reaction chamber at 30 μL/min. A SPR sensing chip with recombinant TLR4/MD2 (R&D Systems, Minneapolis, MN, USA) that was immobilized by amino coupling was used to capture the peptide, according to the manufacturer’s protocol. […] The running buffer was injected into the empty channel as a reference. Sensor chip regeneration and desorption were achieved by injecting 10 mM Gly-HCl buffer (pH 2.5) before the next round of analyses. The experimental data were analyzed by ProteOn Manager^TM software (version 2.0). Binding curves were processed for the initial injection alignment and baseline, and a reference-subtracted sensorgram was globally fitted to the curves to describe a homogeneous 1:1 model. Data from the protein surfaces were grouped together to fit the kinetic rate constants (Ka and Kd). The equilibrium dissociation constant (KD) for the peptide-TLR4/MD2 interaction was calculated using the following equation:(5) KD=Kd/Ka

[4] = test system: RAW264.7 cells; test: Cytokine production in RAW264.7 macrophages (ELISA); type: cell-based, mouse; conditions: RAW264.7, 10 μg/mL peptide, 12 h (Figure 3 legend; method says 24 h), n = 5
Protocol: RAW264.7 cells were stimulated with or without 10 μg/mL peptides for 24 h at 37 °C in a humidified incubator with 5% CO2. Levels of TNF-α, IL-6, and IL-1β in the culture supernatant were measured using enzyme-linked immunosorbent assay (ELISA) kits according to the manufacturer’s instructions

[5] = test system: TLR4-NF-κB pathway; test: Western blot of TLR4-NF-κB pathway proteins in CTX-treated mice; type: in vivo, mouse; conditions: CTX-treated mice with or without LTAa, n = 3
Protocol: as §1, with “Whole protein” for “Serum was obtained from blood by centrifugation at 1000 × g for 20 min. Levels of TNF-α, IL-6, IL-1β, IgG, IgA, and IgM”, “serum was collected using a whole-protein extraction kit (Nanjing KeyGEN Biotech, Nanjing, China) according to the manufacturer's instructions. The protein concentration was measured using a bicinchoninic acid kit (Nanjing KeyGEN Biotech). The different proteins” for “serum”, “separated” for “detected”, “sodium dodecyl sulfate polyacrylamide gel electrophoresis and transferred onto polyvinylidene difluoride membranes (Bio-Rad). […]” for “ELISA.”

[6] = test system: peritoneal macrophages; test: Peritoneal macrophage phagocytosis (neutral red uptake) in CTX-immunosuppressed mice; type: in vivo, mouse; conditions: peritoneal macrophages of mice, OD 540 nm, CTX 80 mg/kg ip days 1-3, peptide 10 mg/kg ip days 4-10, control group 55.67%, n = 12
Protocol: Peritoneal macrophages were aseptically obtained from the different groups of mice by peritoneal lavage with 5 mL ice-cold phosphate-buffered saline (PBS). The peritoneal macrophages were further isolated by incubating peritoneal exudate cells at 37 °C in a moist atmosphere (5% CO2, 95% air) for 3 h to allow the cells to adhere. The adherent cells were washed twice and collected as peritoneal macrophages.
The phagocytic capacity of the peritoneal macrophages was measured by the neutral red uptake method [52]. […] The OD was measured using a microplate reader at 540 nm. The phagocytic rate was calculated in the following way:(4) hagocytic rate (%)=OD540(sample)/OD540(control) ×100% where OD540 (sample) is the absorbance at 540 nm by peptide-treated cells and OD540 (control) is the absorbance at 540 nm by the cells without peptides treated.

T1 sequence (O00206 24-631 limits assumed, species assumed): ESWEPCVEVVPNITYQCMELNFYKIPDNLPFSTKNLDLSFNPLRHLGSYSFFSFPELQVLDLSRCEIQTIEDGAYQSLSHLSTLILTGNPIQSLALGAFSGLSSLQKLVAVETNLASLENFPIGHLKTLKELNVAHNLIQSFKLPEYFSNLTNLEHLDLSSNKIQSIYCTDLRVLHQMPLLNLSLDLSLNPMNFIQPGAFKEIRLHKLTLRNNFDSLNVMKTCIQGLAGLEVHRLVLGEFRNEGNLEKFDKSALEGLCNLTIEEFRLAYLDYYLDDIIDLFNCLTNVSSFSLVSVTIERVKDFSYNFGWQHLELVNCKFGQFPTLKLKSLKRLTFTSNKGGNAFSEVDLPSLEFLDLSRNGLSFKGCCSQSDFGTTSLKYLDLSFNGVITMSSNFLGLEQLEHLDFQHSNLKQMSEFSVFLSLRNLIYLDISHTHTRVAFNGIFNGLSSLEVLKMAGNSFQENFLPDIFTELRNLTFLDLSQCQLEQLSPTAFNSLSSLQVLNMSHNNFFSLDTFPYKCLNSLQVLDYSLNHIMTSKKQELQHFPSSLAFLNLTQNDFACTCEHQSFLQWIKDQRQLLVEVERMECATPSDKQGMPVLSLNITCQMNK
T1 sequence (Q9Y6Y9 19-160, species assumed): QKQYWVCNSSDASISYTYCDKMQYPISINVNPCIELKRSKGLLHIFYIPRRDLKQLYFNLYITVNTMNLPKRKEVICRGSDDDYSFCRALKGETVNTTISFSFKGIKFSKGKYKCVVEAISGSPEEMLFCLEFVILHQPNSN

- Ka for binding to TLR4/MD2 [3]: 7.38e+09 M⁻¹ s⁻¹
- Kd (rate constant) for binding to TLR4/MD2 [3]: 0.362 s⁻¹
Sequence: IGKEFKRIVQRIKDFLRNLVPRTEKEKKEVVE [LTAa]
- serum TNF-α, IL-6 and IL-1β levels [1]: significantly higher TNF-α, IL-6, and IL-1β concentrations than those in the Tα1- or LL-37-treated groups
- CD4+:CD8+ T lymphocyte ratio [2]: higher
- TNF-α, IL-6 and IL-1β production/secretion [4]: remarkable increases
- TLR4, MyD88 and TRAF6 expression [5]: increasing
- macrophage phagocytic rate [6]: significantly higher phagocytic rates than those in the Tα1- or LL-37-treated groups
